This note sets out measurements from ChEMBL document CHEMBL1135103, “Design and synthesis of a piperazinylalkylisoxazole library for subtype selective dopamine receptor ligands” (Bioorg Med Chem Lett, 2002).

What all share (assay): biochemical
One assay addresses D(2) dopamine receptor (Homo sapiens, UniProt P14416).
Another assay addresses D(3) dopamine receptor (Homo sapiens, UniProt P35462).
In the next assay the target is T1, D(4) dopamine receptor (Homo sapiens, UniProt P21917).
T1 sequence (P21917 whole entry): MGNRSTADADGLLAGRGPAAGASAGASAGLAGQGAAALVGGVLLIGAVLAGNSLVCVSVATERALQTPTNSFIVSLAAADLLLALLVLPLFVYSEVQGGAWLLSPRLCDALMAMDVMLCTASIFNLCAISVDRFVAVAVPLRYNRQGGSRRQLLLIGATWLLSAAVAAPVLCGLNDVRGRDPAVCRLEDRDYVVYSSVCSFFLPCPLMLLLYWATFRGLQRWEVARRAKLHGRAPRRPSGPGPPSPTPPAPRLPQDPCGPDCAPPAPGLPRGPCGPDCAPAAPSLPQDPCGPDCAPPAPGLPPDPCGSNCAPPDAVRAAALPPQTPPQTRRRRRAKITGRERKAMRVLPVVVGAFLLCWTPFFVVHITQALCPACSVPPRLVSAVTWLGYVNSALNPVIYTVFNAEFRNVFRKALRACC

Sequence of D(2) dopamine receptor (P14416 whole entry): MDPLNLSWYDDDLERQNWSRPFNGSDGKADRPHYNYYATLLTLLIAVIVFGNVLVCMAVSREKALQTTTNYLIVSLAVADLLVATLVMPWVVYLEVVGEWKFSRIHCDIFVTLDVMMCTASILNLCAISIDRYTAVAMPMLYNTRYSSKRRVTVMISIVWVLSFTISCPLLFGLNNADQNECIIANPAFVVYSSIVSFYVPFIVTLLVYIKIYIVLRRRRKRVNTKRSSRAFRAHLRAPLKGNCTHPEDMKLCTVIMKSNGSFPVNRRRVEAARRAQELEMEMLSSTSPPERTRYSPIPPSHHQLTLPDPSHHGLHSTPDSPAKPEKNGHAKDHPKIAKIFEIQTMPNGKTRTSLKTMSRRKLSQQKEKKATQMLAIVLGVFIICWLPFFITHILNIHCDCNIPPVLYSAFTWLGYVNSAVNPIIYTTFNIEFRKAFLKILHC
Sequence of D(3) dopamine receptor (P35462 whole entry): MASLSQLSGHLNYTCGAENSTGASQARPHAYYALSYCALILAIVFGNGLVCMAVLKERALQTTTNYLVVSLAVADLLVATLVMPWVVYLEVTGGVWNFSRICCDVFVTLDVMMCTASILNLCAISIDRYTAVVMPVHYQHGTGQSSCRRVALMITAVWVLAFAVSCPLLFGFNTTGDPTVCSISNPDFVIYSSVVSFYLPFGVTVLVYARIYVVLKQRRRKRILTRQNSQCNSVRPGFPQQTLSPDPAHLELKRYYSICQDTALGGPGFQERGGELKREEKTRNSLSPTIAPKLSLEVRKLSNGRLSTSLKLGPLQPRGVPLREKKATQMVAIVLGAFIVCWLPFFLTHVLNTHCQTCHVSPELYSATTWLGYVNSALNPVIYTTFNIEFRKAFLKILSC
Description for D(2) dopamine receptor: Displacement of the radioligand [3H]spiperone from the cloned human Dopamine receptor D2 long expressed in CHO cells
Description for D(3) dopamine receptor: Displacement of the radioligand [3H]YM-09151-2 from cloned human Dopamine receptor D3 expressed in CHO cells
Description for D(4) dopamine receptor: Displacement of the radioligand [3H]spiperone from the cloned human dopamine receptor D4 expressed in CHO cells

Broadly, the Ki is a measure of affinity in units of concentration, obtained from inhibition or displacement. Read a high Ki as weaker binding. For `COc1ccc(-c2cc(CCCCN3CCN(c4ccccc4OC)CC3)on2)cc1OC`, the Ki on D(2) dopamine receptor came out at 418 nM; on D(3) dopamine receptor it was 5.2 nM; on D(4) dopamine receptor, 257 nM.
Take `C(=C\c1cc(CCCCN2CCN(C(c3ccccc3)c3ccccc3)CC2)on1)/c1ccccc1`: the Ki is 491 nM at D(2) dopamine receptor, 40 nM on D(3) dopamine receptor and 603 nM on D(4) dopamine receptor.
For `COc1ccc(-c2cc(CCCCN3CCN(c4ccccc4OC)CC3)on2)c(OC)c1`, the Ki on D(2) dopamine receptor is 440 nM; on D(3) dopamine receptor, 6.5 nM; on D(4) dopamine receptor it was 34 nM.
In the case of `COc1ccccc1N1CCN(CCCCc2cc(/C=C/c3ccccc3)no2)CC1`, the Ki was found to be 964 nM at D(2) dopamine receptor, 15 nM on D(3) dopamine receptor and 88 nM at D(4) dopamine receptor.
With `COc1ccccc1N1CCN(CCCCc2cc(-c3cccc([N+](=O)[O-])c3)no2)CC1`, the values for the Ki at D(2) dopamine receptor, at D(3) dopamine receptor and at D(4) dopamine receptor were 295 nM, 6 nM and 50 nM, respectively.
Consider `COc1ccc(-c2cc(CCCCN3CCN(c4ccccc4F)CC3)on2)cc1OC`, for which the values for the inhibition constant Ki on D(2) dopamine receptor, on D(3) dopamine receptor and at D(4) dopamine receptor were 5150 nM, 20 nM and 233 nM, respectively.
For the molecule `Fc1ccccc1N1CCN(CCCCc2cc(/C=C/c3ccccc3)no2)CC1`, the results for the Ki at D(2) dopamine receptor, at D(3) dopamine receptor and at D(4) dopamine receptor were 585 nM, 10 nM and 58 nM, respectively.
With `COc1ccccc1N1CCN(CCCCc2cc(-c3ccccc3)no2)CC1`, the values for the inhibition constant Ki at D(2) dopamine receptor, at D(3) dopamine receptor and at D(4) dopamine receptor were 1730 nM, 9.5 nM and 198 nM, respectively.
Taken in the same sequence, the figures for `Cc1ccccc1N1CCN(CCCCc2cc(-c3ccccc3)no2)CC1` were 6510 nM, 292 nM and 683 nM.
Taken in the same sequence, the figures for `O=[N+]([O-])c1cccc(-c2cc(CCCCN3CCN(C(c4ccccc4)c4ccccc4)CC3)on2)c1` were 1520 nM, 19 nM and 2310 nM.
Take `CCOc1ccccc1N1CCN(CCCCc2cc(-c3cccs3)no2)CC1`: the values for the Ki at D(2) dopamine receptor, on D(3) dopamine receptor and at D(4) dopamine receptor were 194 nM, 3.9 nM and 12 nM, respectively.
For `c1ccc(N2CCN(CCCCc3cc(-c4cccs4)no3)CC2)cc1`, the Ki at D(2) dopamine receptor came out at 4140 nM; on D(3) dopamine receptor, 15 nM; on D(4) dopamine receptor it was 117 nM.
As to `COc1ccccc1N1CCN(CCCCc2cc(-c3ccc(F)cc3)no2)CC1`, the Ki was 321 nM on D(2) dopamine receptor, 23 nM at D(3) dopamine receptor and 33 nM at D(4) dopamine receptor.
Regarding `Cc1ccccc1N1CCN(CCCCc2cc(-c3cccs3)no2)CC1`, the results for the Ki on D(2) dopamine receptor, on D(3) dopamine receptor and on D(4) dopamine receptor were 2110 nM, 163 nM and 465 nM, respectively.
As to `Fc1ccc(-c2cc(CCCCN3CCN(c4ccccc4)CC3)on2)cc1`, the figures for the inhibition constant Ki on D(2) dopamine receptor, on D(3) dopamine receptor and on D(4) dopamine receptor were 2530 nM, 12 nM and 96 nM, respectively.
Take `CCOc1ccccc1N1CCN(CCCCc2cc(-c3ccccc3)no2)CC1`: the Ki turned out to be 341 nM on D(2) dopamine receptor, 9 nM at D(3) dopamine receptor and 34 nM at D(4) dopamine receptor.
In the case of `COc1ccc(-c2cc(CCCCN3CCN(c4ccccc4)CC3)on2)cc1OC`, the values for the Ki at D(2) dopamine receptor, at D(3) dopamine receptor and at D(4) dopamine receptor were 3390 nM, 24 nM and 774 nM, respectively.
`CCOc1ccccc1N1CCN(CCCCc2cc(-c3cccc([N+](=O)[O-])c3)no2)CC1`: the values for the Ki at D(2) dopamine receptor, at D(3) dopamine receptor and at D(4) dopamine receptor were 95 nM, 19 nM and 51 nM, respectively.
On the same counts, the results for `c1ccc(-c2cc(CCCCN3CCN(c4ccccc4)CC3)on2)cc1` are 3370 nM, 18 nM and 541 nM.
For the molecule `O=[N+]([O-])c1cccc(-c2cc(CCCCN3CCN(c4ccccc4)CC3)on2)c1`, the Ki at D(2) dopamine receptor was 1470 nM; on D(3) dopamine receptor it was 60 nM; at D(4) dopamine receptor, 1700 nM.
Taken in the same sequence, the figures for `COc1ccc(-c2cc(CCCCN3CCN(C(c4ccccc4)c4ccccc4)CC3)on2)cc1OC` were 2620 nM, 20 nM and 2440 nM.
Regarding `COc1ccc(-c2cc(CCCCN3CCN(c4ccccc4)CC3)on2)c(OC)c1`, the values for the Ki on D(2) dopamine receptor, at D(3) dopamine receptor and at D(4) dopamine receptor were 2200 nM, 16 nM and 76 nM, respectively.
With `Fc1ccc(-c2cc(CCCCN3CCN(C(c4ccccc4)c4ccccc4)CC3)on2)cc1`, the Ki came to 1460 nM on D(2) dopamine receptor, 30 nM at D(3) dopamine receptor and 1350 nM at D(4) dopamine receptor.
For the molecule `CCOc1ccccc1N1CCN(CCCCc2cc(-c3ccc(OC)c(OC)c3)no2)CC1`, the inhibitory constant (Ki) on D(2) dopamine receptor worked out at 119 nM; at D(3) dopamine receptor, 2.6 nM; at D(4) dopamine receptor, 28 nM.
Taken in the same sequence, the figures for `c1ccc(C(c2ccccc2)N2CCN(CCCCc3cc(-c4cccs4)no3)CC2)cc1` were 620 nM, 52 nM and 2150 nM.
Taken in the same sequence, the figures for `COc1ccccc1N1CCN(CCCCc2cc(-c3cccs3)no2)CC1` were 726 nM, 4.7 nM and 21 nM.
`COc1ccc(-c2cc(CCCCN3CCN(C(c4ccccc4)c4ccccc4)CC3)on2)c(OC)c1`: the Ki on D(2) dopamine receptor came to 3830 nM; at D(3) dopamine receptor, 16 nM; at D(4) dopamine receptor it was 1120 nM.
In the case of `COc1ccc(-c2cc(CCCCN3CCN(c4ccccc4C)CC3)on2)cc1OC`, the Ki at D(2) dopamine receptor is 1400 nM; at D(3) dopamine receptor, 38 nM; at D(4) dopamine receptor, 413 nM.
On the same counts, the results for `C(=C\c1cc(CCCCN2CCN(c3ccccc3)CC2)on1)/c1ccccc1` are 9720 nM, 27 nM and 346 nM.
Regarding `c1ccc(-c2cc(CCCCN3CCN(C(c4ccccc4)c4ccccc4)CC3)on2)cc1`, the Ki on D(2) dopamine receptor turned out to be 486 nM; at D(3) dopamine receptor it was 15 nM; on D(4) dopamine receptor it was 2240 nM.
